Assays:
Format in all cases: cell-based
[1] = test system: Staphylococcus aureus (strain 906); test: Antimicrobial activity of samples: death time of test-microorganism Staphylococcus aureus
E. coli (strain 1257) = test: Antimicrobial activity of samples: death time of test-microorganism E. coli
[2] = test system: Bacillus cereus (strain 96); test: Antimicrobial activity of samples: death time of test-microorganism Bacillus cereus; details: sample concentration 5.0 %
[3] = statement of the text on Table 1

Row | Compound | Death time of test-microorganisms (min) Staphylococcus aureus ([1]; sample concentration 0.1 %) [min] | Death time of test-microorganisms (min) Staphylococcus aureus ([1]; sample concentration 5.0 %) [min] | Death time of test-microorganisms (min) E. coli (E. coli (strain 1257); sample concentration 0.1 %) [min] | Death time of test-microorganisms (min) E. coli (E. coli (strain 1257); sample concentration 5.0 %) [min] | Death time of test-microorganisms (min) Staphylococcus aureus ([1]; sample concentration 0.2 %) [min] | Death time of test-microorganisms (min) Staphylococcus aureus ([1]; sample concentration 0.5 %) [min] | Antibacterial action in words towards gram positive bacteria (vegetative forms) [1, 3] | Death time of test-microorganisms (min) E. coli (E. coli (strain 1257); sample concentration 0.2 %) [min] | Death time of test-microorganisms (min) E. coli (E. coli (strain 1257); sample concentration 0.5 %) [min] | Antibacterial action in words towards gram negative bacteria (vegetative forms) (E. coli (strain 1257); [3]) | Death time of test-microorganisms (min) Bacillus cereus [2] [min]
1 | O=C(O)CN(CCN(CC(=O)O)CC(=O)O)CC(=O)O.[Zn] [Ethylenediaminotetraacetate zinc complex] | >30 | >30 | >30 | >30 |  |  |  |  |  |  | 
2 | Monoglycinatecopper chloride complex | >30 | >30 | >30 |  | >30 | >30 | high enough efficacy | 30 | 15 | high enough efficacy | >360

Reference: patent US20050164913A1, “Disinfecting composition” (Veckis Industries Ltd., priority 2002, published 2005)
